# From EP1891105B1, “OXYNTOMODULIN ANALOGUES AND THEIR EFFECTS ON FEEDING BEHAVIOUR” (Imperial Innovations Limited, priority 2005, dated 2012)
# Entries after “also recorded” stand apart in the source; their conditions may differ. Non-standard residues stand in square brackets, D forms with d. No end group written: not given here. *: point of attachment. Lauroyl = CCCCCCCCCCCC(=O)*
# How the values were obtained:
# [1] = Food intake of fasted mice after injection of peptide; type: in vivo, C57BL/6 mice
# Protocol: Animals: All animal procedures were approved by the British Home Office Animals (Scientific Procedures) Act 1986 (Project License number 70/5516). Male C57BL/6 mice and male Wistar rats were maintained in individual cages under controlled temperature (21-23 °C) with ad libitum access to standard chow (RM1 diet, SDS Ltd, Witham, Essex, UK) and to water. The light cycle was 14 hours light and 10 hours dark with 'dawn' at 07:00, lights full on at 07:30, 'dusk' at 21:00 with lights off at 21:30. These times were fixed in the animal facility.
# All animals were handled almost daily for on average nine days prior to the first study. During the acclimatization period, each animal received two saline injections at least two days apart in order to further acclimatize to the procedure on the study days.
# Intra-peritoneal (IP) injections: IP injections were administered to mice via a 0.5 ml syringe with a 29-gauge needle (maximum injection volume 0.1 ml). Maximum volume administered IP was 0.1 ml.
# Study protocol: C57BL/6 mice (20-35 g) were injected with the peptide under investigation following a 20-hour fast Wistar rats were injected following a 24-hour fast. A pre-weighed quantity of chow was presented immediately after injection. The remaining food was measured at regular time intervals (e.g. 1, 2, 3,4, 6, 8, 24 and 48 hours following injection) and food intake calculated.
# [2] = humans; 1.8 mg sc three times daily for 28 days; cited from earlier work
# [3] = rats, cited from earlier work
# [4] = humans; intravenously infused; cited from earlier work
# [5] = Example 1, 2700 nmol/kg, intervals 0-32 h after injection, vs saline and oxm
molecule,measurement,setting,value
"D-His1,Ala2,Lys33,Ala38,Ala39,Lys40-lauroyl-oxm(ex15-23)(ex27-33) ([dH]AQGTFTSDYSKYLEEEAVRLFIQWLKNGGPSKNNIAAAK(Lauroyl))",food intake,"[1]; Example 54, 10 nmol/kg",exception
"DHis2-Ser2-Asp3-oxm(ex15-23)(ex27-33)-Lys33-Ala38,39-Glu40,41-Lys42-Lauroyl ([dH]SDGTFTSDYSKYLEEEAVRLFIQWLKNGGPSKNNIAAAEEK(Lauroyl)) [23/104]",food intake,"[1]; Example 57, 6 or 20 nmol/kg",markedly decreased cumulative food intake in comparison to the saline control
oxm(xx15-18): human oxm with 4 amino acids at positions 15-18 replaced by substitute sequence (HSQGTFTSDYSKYLEEEAAQDFVQWLMNTKRNRNNIA),food intake,[1]; [5],increased and prolonged inhibition of food intake compared to both saline and oxm
"Oxyntomodulin (HSQGTFTSDYSKYLDSRRAQDFVQWLMNTKRNRNNIA) [oxm, 37 amino acid peptide member of the glucagon superfamily]",food intake,"[1]; Example 5, 2700nmol/kg, 0-4 h, vs oxm and saline",reduced food intake as expected
same,food intake,"[1]; Example 7, 1000 nmol/kg, 0-24 h",did not quite reach statistical significance
same,Multiples of food inhibition Factor,"[1]; Example 9, food intake during the first hour after injection, activity relative to oxm (1400 nmol/kg)",1
same,body weight,[2],significant reduction of body weight
same,weight gain,[3]; chronic central administration,reduced weight gain
same,refeeding after a fast,[3]; intracerebroventricular and injection into paraventricular and arcuate nuclei,inhibits refeeding after a fast
same,body weight gain and adiposity,[3]; twice daily peripheral injections,reduced body weight gain and adiposity
same,appetite,[4],effective appetite suppressant
oxm(xx15-21): human oxm with residues 15-21 replaced by corresponding exendin-4 residues (HSQGTFTSDYSKYLEEEAVRLFVQWLMNTKRNRNNIA),food intake,[1]; [5],greater and more prolonged appetite suppressant effect
oxm(xx15-24): human oxm with residues 15-24 replaced by corresponding exendin-4 residues (peptide) chain 1: HSQGTFTSDYSKYLEEEAVRLFIEWLMNTKRNRNNIA chain 2: HSQGTFTSDYSKYLEEEAVRLFIEWLMNTKRNRNNIA,food intake,[1]; [5],greater and more prolonged appetite suppressant effect; also recorded: more potent effect on feeding than oxm
same,food intake,"[1]; Example 2, 300 nmol/kg, 0-24 h, vs exendin 4 and saline",reduces food intake only slightly less than exendin over the first 8 hours post-injection
same,food intake,"[1]; Example 27, 100 nmol/kg",the most effective
oxm(xx27-33): oxm with residues 27 to 33 replaced by the sequence Lys Asn Gly Gly Pro Ser Ser (peptide) chain 1: HSQGTFTSDYSKYLDSRRAQDFVQWLKNGGPSSNNIA chain 2: HSQGTFTSDYSKYLDSRRAQDFVQWLKNGGPSSNNIA,food intake,"[1]; Example 3, 2700 nmol/kg, 0-24 h, vs oxm and saline",increased and prolonged inhibition of food intake compared to both saline and oxm
